pIC50: −log10 of the molar value. Each block holds one compound with its values, some of them ahead of it. Active and inactive are the calls of the source. No cut-off for these calls is given here.
Legend:
[1] = target: Vascular endothelial growth factor receptor 1 (Homo sapiens) (UniProt P17948); test: Inhibition of human VEGFR1 at 0.1 uM
[2] = target: Vascular endothelial growth factor receptor 3 (Homo sapiens) (UniProt P35916); test: Inhibition of human VEGFR3 at 0.1 uM
[3] = target: T1, Hepatocyte growth factor receptor (Homo sapiens, UniProt P08581); test: Inhibition of TPR-fused Met autophosphorylation expressed in HEK293T cells after 150 mins by ELISA; assay type: cell-based; conditions: hek-293t
[4] = target: Vascular endothelial growth factor receptor 2 (Homo sapiens, UniProt P35968); test: Inhibition of recombinant GST-fused VEGFR2 expressed in baculovirus infected Sf9 cells by DELFIA
[5] = target: T1, Hepatocyte growth factor receptor; test: Inhibition of recombinant GST-fused c-Met expressed in baculovirus infected high five cells by DELFIA
[6] = target: High affinity nerve growth factor receptor (Homo sapiens) (UniProt P04629); conditions: 0.1 uM
Description: Inhibition of human TrkA at 0.1 uM

[7] = target: ALK tyrosine kinase receptor (Homo sapiens) (UniProt Q9UM73); conditions: 0.1 uM
Description: Inhibition of human ALK at 0.1 uM

[8] = target: Cytoplasmic tyrosine-protein kinase BMX (Homo sapiens) (UniProt P51813); conditions: 0.1 uM
Description: Inhibition of human Bmx at 0.1 uM

[9] = target: Serine/threonine-protein kinase Chk1 (Homo sapiens) (UniProt O14757); conditions: 0.1 uM
Description: Inhibition of human CHK1 at 0.1 uM

[10] = target: Mast/stem cell growth factor receptor Kit (Homo sapiens) (UniProt P10721); conditions: 0.1 uM
Description: Inhibition of human c-Kit at 0.1 uM

[11] = target: RAF proto-oncogene serine/threonine-protein kinase (Homo sapiens) (UniProt P04049); conditions: 0.1 uM
Description: Inhibition of human c-Raf at 0.1 uM

[12] = target: Glycogen synthase kinase-3 beta (Homo sapiens) (UniProt P49841); conditions: 0.1 uM
Description: Inhibition of human GSK3-beta at 0.1 uM

[13] = target: Serine/threonine-protein kinase haspin (Homo sapiens) (UniProt Q8TF76); conditions: 0.1 uM
Description: Inhibition of human haspin at 0.1 uM

[14] = target: Inhibitor of nuclear factor kappa-B kinase subunit beta (Homo sapiens) (UniProt O14920); conditions: 0.1 uM
Description: Inhibition of human IKK-beta at 0.1 uM

[15] = target: Tyrosine-protein kinase JAK2 (Homo sapiens) (UniProt O60674); conditions: 0.1 uM
Description: Inhibition of human JAK2 at 0.1 uM

[16] = target: Tyrosine-protein kinase JAK3 (Homo sapiens) (UniProt P52333); conditions: 0.1 uM
Description: Inhibition of human JAK3 at 0.1 uM

[17] = target: LIM domain kinase 1 (Homo sapiens) (UniProt P53667); conditions: 0.1 uM
Description: Inhibition of human LIMK1 at 0.1 uM

[18] = target: Dual specificity mitogen-activated protein kinase kinase 1 (Homo sapiens) (UniProt Q02750); conditions: 0.1 uM
Description: Inhibition of human MEK1 at 0.1 uM

[19] = target: 3-phosphoinositide-dependent protein kinase 1 (Homo sapiens) (UniProt O15530); conditions: 0.1 uM
Description: Inhibition of human PDK1 at 0.1 uM

[20] = target: Phosphatidylinositol 4,5-bisphosphate 3-kinase catalytic subunit beta isoform (Homo sapiens) (UniProt P42338); conditions: 0.1 uM
Description: Inhibition of human PI3Kbeta at 0.1 uM

[21] = target: Serine/threonine-protein kinase pim-1 (Homo sapiens) (UniProt P11309); conditions: 0.1 uM
Description: Inhibition of human Pim1 at 0.1 uM

[22] = target: RAC-alpha serine/threonine-protein kinase (Homo sapiens) (UniProt P31749); conditions: 0.1 uM
Description: Inhibition of human PKBalpha at 0.1 uM

[23] = target: Proto-oncogene tyrosine-protein kinase receptor Ret (Homo sapiens) (UniProt P07949); conditions: 0.1 uM
Description: Inhibition of human Ret at 0.1 uM

[24] = target: Focal adhesion kinase 1 (Homo sapiens) (UniProt Q05397); conditions: 0.1 uM
Description: Inhibition of human FAK at 0.1 uM

[25] = target: Ephrin type-B receptor 4 (Homo sapiens) (UniProt P54760); conditions: 0.1 uM
Description: Inhibition of human EphB4 at 0.1 uM

[26] = target: Receptor-type tyrosine-protein kinase FLT3 (Homo sapiens) (UniProt P36888); conditions: 0.1 uM
Description: Inhibition of human Flt3 at 0.1 uM

[27] = target: T1, Hepatocyte growth factor receptor; conditions: 0.1 uM
Description: Inhibition of human c-MET at 0.1 uM

[28] = target: Macrophage-stimulating protein receptor (Homo sapiens) (UniProt Q04912); conditions: 0.1 uM
Description: Inhibition of human RON at 0.1 uM

[29] = target: Angiopoietin-1 receptor (Homo sapiens) (UniProt Q02763); conditions: 0.1 uM
Description: Inhibition of human Tie2 at 0.1 uM

[30] = target: Angiopoietin-1 receptor (Homo sapiens) (UniProt Q02763); test: Inhibition of human Tie2
[31] = target: T1, Hepatocyte growth factor receptor; test: Inhibition of human c-MET
[32] = target: Macrophage-stimulating protein receptor (Homo sapiens) (UniProt Q04912); test: Inhibition of human RON
[33] = target: Receptor-type tyrosine-protein kinase FLT3 (Homo sapiens) (UniProt P36888); test: Inhibition of human Flt3
[34] = target: Aurora kinase A (Homo sapiens) (UniProt O14965); test: Inhibition of human Aurora A
[35] = target: Vascular endothelial growth factor receptor 1 (Homo sapiens) (UniProt P17948); test: Inhibition of human VEGFR1
[36] = target: Vascular endothelial growth factor receptor 3 (Homo sapiens) (UniProt P35916); test: Inhibition of human VEGFR3
HUVEC [37] = test: Inhibition of VEGF-induced HUVEC proliferation; assay type: functional, cell-based; conditions: Homo sapiens
HUVEC [38] = test: Antiangiogenic activity in HUVEC assessed as inhibition of tubule length; assay type: functional, cell-based; conditions: Homo sapiens
HUVEC [39] = test: Antiangiogenic activity in HUVEC assessed as inhibition of VEGF-induced tubule growth at 100 nM; assay type: functional; conditions: Homo sapiens
HUVEC [40] = test: Antiangiogenic activity in HUVEC assessed as inhibition of tubule branching; assay type: functional, cell-based; conditions: Homo sapiens
HUVEC [41] = test: Antiangiogenic activity in HUVEC assessed as inhibition of VEGF-induced tubule branching at 100 nM; assay type: functional; conditions: Homo sapiens

SMILES: O=C(CC(Nc1ccc(F)cc1)C(F)(F)F)Nc1ccc(Oc2cc(NC(=O)N3CCCC3)ncn2)c(F)c1 (configuration not stated)
pIC50 [4]: 5.92
pIC50 [5]: < 5.30

SMILES: O=C(CC(Nc1ccc(Oc2cc(NC(=O)N3CCCC3)ncn2)c(F)c1)C(F)(F)F)Nc1ccccc1 (configuration not stated)
inhibition [30]: inactive
inhibition [31]: inactive
inhibition [32]: inactive
inhibition [33]: inactive
inhibition [34]: inactive
inhibition [35]: Active
inhibition [36]: Active
pIC50 (HUVEC [37]): 7.40
pIC50 (HUVEC [38]): 8.00
inhibition at 0.1 µM (HUVEC [39]): 97%
pIC50 (HUVEC [40]): 8.22
inhibition at 0.1 µM (HUVEC [41]): 95%
pIC50 [4]: 7.40
pIC50 [5]: < 5.30

SMILES: COc1cc2nccc(Oc3ccc(NC(=O)CC(Nc4ccccc4)C(F)(F)F)cc3F)c2cc1OC (configuration not stated)
pIC50 [4]: 6.44
pIC50 [5]: 6.17

SMILES: COc1cc2ncnc(Oc3ccc(NC(=O)CC(Nc4ccccc4)C(F)(F)F)cc3F)c2cc1OC (configuration not stated)
pIC50 [4]: 6.07
pIC50 [5]: < 5.30

SMILES: COc1cc2nccc(Oc3ccc(NC(CC(=O)Nc4ccccc4)C(F)(F)F)cc3F)c2cc1OC (configuration not stated)
pIC50 [4]: 7.52
pIC50 [5]: 6.04

Continued, values first:

inhibition [1]: > 95%
inhibition [2]: > 95%
pIC50 [3]: 5.74
pIC50 [4]: 7.70
pIC50 [5]: 6.08
inhibition [6]: 50%
inhibition [7]: < 50%
inhibition [8]: < 50%
inhibition [9]: < 50%
inhibition [10]: < 50%
inhibition [11]: < 50%
inhibition [12]: < 50%
inhibition [13]: < 50%
inhibition [14]: < 50%
inhibition [15]: < 50%
inhibition [16]: < 50%
inhibition [17]: < 50%
inhibition [18]: < 50%
inhibition [19]: < 50%
inhibition [20]: < 50%
inhibition [21]: < 50%
inhibition [22]: < 50%
inhibition [23]: < 50%
inhibition [24]: < 50%
inhibition [25]: < 50%
inhibition [26]: 50%
inhibition [27]: 50%
inhibition [28]: 50%
inhibition [29]: 50%
SMILES: COc1ccccc1NC(=O)CC(Nc1ccc(Oc2ccnc3cc(-c4cn(C)cn4)sc23)c(F)c1)C(F)(F)F (configuration not stated)

pIC50 [3]: 6.06
pIC50 [4]: 7.70
pIC50 [5]: 6.74
SMILES: Cn1cnc(-c2cc3nccc(Oc4ccc(NC(CC(=O)Nc5ccc(F)cc5)C(F)(F)F)cc4)c3s2)c1 (configuration not stated)

pIC50 [5]: 7.40
SMILES: CN(C(=O)CC(=O)Nc1ccc(Oc2ccnc3cc(-c4cn(C)cn4)sc23)c(F)c1)c1ccccc1

pIC50 [4]: 7.70
pIC50 [5]: 7.52
SMILES: Cn1cnc(-c2cc3nccc(Oc4ccc(NC(=O)CC(=O)Nc5ccccc5)cc4F)c3s2)c1

pIC50 [3]: 6.43
pIC50 [4]: 7.70
pIC50 [5]: 7.05
SMILES: Cn1cnc(-c2cc3nccc(Oc4ccc(NC(CC(=O)Nc5ccc(F)cc5)C(F)(F)F)cc4F)c3s2)c1 (configuration not stated)

pIC50 [4]: 6.68
SMILES: Cn1cnc(-c2cc3nccc(Oc4ccc(NC(=O)CC(Nc5ccccc5)C(F)(F)F)cc4F)c3s2)c1 (configuration not stated)

pIC50 [4]: 8.00
SMILES: Cn1cnc(-c2cc3nccc(Oc4ccc(NC(CC(=O)Nc5ccccc5)C(F)(F)F)cc4F)c3s2)c1 (configuration not stated)

Source: ChEMBL document CHEMBL1156855, “Identification of potent and selective VEGFR receptor tyrosine kinase inhibitors having new amide isostere headgroups” (Bioorg Med Chem Lett, 2010)
